Measurements published in BindingDB's records for doi:10.1021/jm5003759 (University of Copenhagen, 2014).

Molecular target: T1, 5-hydroxytryptamine receptor 2C (Homo sapiens, UniProt P28335)
T1 sequence (P28335 whole entry): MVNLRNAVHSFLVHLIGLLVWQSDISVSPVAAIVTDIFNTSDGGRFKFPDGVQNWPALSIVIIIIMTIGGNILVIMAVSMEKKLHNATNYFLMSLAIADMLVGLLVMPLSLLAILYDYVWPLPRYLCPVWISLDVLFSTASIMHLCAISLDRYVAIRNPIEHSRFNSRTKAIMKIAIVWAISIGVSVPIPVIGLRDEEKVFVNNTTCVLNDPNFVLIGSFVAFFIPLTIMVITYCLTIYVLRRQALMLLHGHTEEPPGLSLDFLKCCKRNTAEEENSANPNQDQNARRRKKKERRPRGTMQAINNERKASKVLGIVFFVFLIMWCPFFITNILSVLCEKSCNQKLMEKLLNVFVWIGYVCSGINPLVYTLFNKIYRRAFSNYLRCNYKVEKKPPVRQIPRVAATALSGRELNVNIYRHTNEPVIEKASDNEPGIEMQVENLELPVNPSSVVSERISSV
Assay: Displacement of [3H]5-HT from human recombinant 5-HT2C receptor expressed in mouse 3T3 cells

Ki: 2.04 µM
Structure (SMILES): CNc1cc(NS(=O)(=O)c2ccc(N)cc2)cc(NC)n1 [Ro-63-0563]
